The results in this text go back to US20250339404A1, “COMBINATION THERAPY USING A CD47-SIRP alpha BLOCKING AGENT AND AZACITIDINE” (Aurigene Oncology Limited, priority 2024, published 2025).

Each structure is given as a SMILES string. Entries after “also recorded” stand apart in the source; their conditions may differ. Where a name gives a salt, the structure may show the parent alone.

Series [1] is described as follows: Phase I/IIa open label dose-escalation safety study in subjects with relapsed advanced malignancies. The class given is in vivo, human. The following applies: for Grade 3 or 4 toxicities / adverse events: correlated with the Test Product. From the text:
Study objective: To evaluate the overall safety profile of the compound of formula (I) in human subjects with relapsed advanced malignancies.
The following table summarizes the (final) study protocol.

For another series, the system named is HL-60 cells. The series is described as follows: Phagocytosis of HL-60 cells by human macrophages. The class given is cell-based. On the procedure:
The objective of this study was to determine the effect of Calcium salt of compound of formula (I) and azacitidine mediated induction of phagocytosis of HL-60 cells by human macrophages. Different doses of Calcium salt of compound of formula (I) were tested to determine increase in phagocytosis of HL-60 cells (with or without azacitidine treatment) by macrophages isolated from healthy human volunteers.
Preparation of test compound: 20 mM stock concentration of Calcium salt of compound of formula (I) was prepared. The stock was further diluted to get intermediate and final concentrations. The final assay volume was 200 μL. Medium used for dilution is RPMI media. Four concentrations of Calcium salt of compound of formula (I) ranging from 10 μM to 0.3 μM were used in the assay.
Preparation of macrophage culture media: 5 mL of FBS and 10 μL of recombinant human M CSF (100 μg/mL stock) was added to 45 mL of RPMI to prepare macrophage culture media as and when required.
Preparation of HL-60 cell culture media: 10 mL of FBS was added to 40 mL of IMDM media to prepare HL-60 cell culture media.
Preparation of working stock of azacitidine: A 20 mM stock of azacitidine prepared by adding 172.1 μL of DMSO in 0.84 mg of azacitidine. 4.5 μL of 20 mM stock of azacitidine was added to 25.5 μL of DMSO to prepare 3 mM azacitidine working stock solution. This is 1000× of the desired final treatment concentration of 3 μM.
Preparation of working stock of Mouse IgG1 Kappa isotype control: Molarity of mouse IgG1 kappa isotype control antibody was calculated using online molarity calculator (https://www.graphpad.com/quickcalcs/Molarityform.cfm). Formula weight of antibody was 150 KDa. Molarity of isotype control antibody stock was 6.6667 μM. 3 μL of isotype control antibody stock solution was added to 197 μL RPMI media to prepare 100 nM of working stock solution. This is 10× stock of the required conc of isotype control. Preparation of working stock of anti-human CD47 antibody Molarity of anti-human CD47 antibody was calculated using online molarity calculator (https://www.graphpad.com/quickcalcs/Molarityform.cfm). Formula weight of anti-Human CD47 antibody was 150 KDa. Molarity of anti-human CD47 antibody stock was 6.6667 μM. This stock of anti-human CD47 antibody was further diluted to get intermediate and final concentrations as described below. 3 μL of anti-human CD47 antibody stock solution was added to 197 μL RPMI media to prepare 100 nM of working stock solution (10×).
Preparation of test system: 90 mL whole blood from healthy volunteer was collected in a Na-Heparin vacutainer and stored at room temperature until use. PBMCs isolated from blood were used for isolating monocytes and to differentiate them into macrophages for the phagocytosis assay.
90 mL blood was collected from healthy volunteer in NA-Heparin vacutainer. PBMCs were isolated and were resuspended in 50 mL serum free RPMI 1640 media. For isolation of monocytes, 10 mL of PBMC cell suspension was seeded in each T75 culture flask (total 5 flasks) and were cultured at 37 degree for 2 hours. Monocytes were attached to culture flask by adherence method. Media from these flasks was discarded and attached monocytes were washed once with prewarmed PBS. Monocytes were further cultured in 10 mL of macrophage culture media and were differentiated to macrophages for 10 days. Media from each flask was changed every alternate day or after every 2 days with fresh macrophage culture media.
A vial of HL-60 cell stock was taken from liquid nitrogen. Cells were thawed in a water bath at 37° C. till the last crystal is thawed. Cells were transferred to 50 mL of culture media in a falcon tube and centrifuged at 800 rpm for 8 minutes. Cells were further cultured in 20 mL of HL-60 cell culture media in T75 flasks at 37° C. at 5% CO2 for 24 hrs. After 24 hrs, the cells were centrifuged at 800 rpm for 5 mins. The cells were cultured in 25 mL of complete media at 37° C. and 5% CO2 for 2 more days. […]

For series [2], the system named is Chemokines (MCP-3, MCP-1, MIP-1α & MIP-1β) and Cytokines (IL-12p40, IL-1A, IL-8, TNFα & IL-6). The series is described as follows: Pharmacodynamic biomarkers in the Phase I/IIa study. The class given is in vivo, human. Conditions: all cohorts, as a result of treatment. From the text: Chemokines are known for their role in recruitment of macrophages to sites of infection, damage, or tumors for the purpose of phagocytosis and healing. An upregulation of chemokines followed by administration of the compound of formula (I) is indicative of the CD-47 inhibition mediated enhanced phagocytosis. Disruption of the IL-6-STAT3 axis is known to reduce the ability of tumor cells to escape phagocytosis (Jing Chen et al. Oncoimmunology 2019, VOL. 8, NO. 11, e1652540). A drop in IL-6 level is also indicative of macrophage activation.

[3] abbreviates: 0.3 μM, DMSO treated HL-60 cells.
The mark [4] stands for this setting: 10 μM, DMSO treated HL-60 cells, normalized to 10 nM anti-human CD47.
Setting [5] is: Azacitidine 3 μM alone, HL-60 cells treated 72 hrs.
Setting [6] is: all subjects, across dose levels 25-400 mg BID oral.

With `N=C(N)NCCC[C@H](NC(=O)N1CCCC1C(=O)O)c1nc([C@@H](N)CCC(=O)O)no1` (stereo partly shown) [Calcium salt of compound of formula (I)], the “Grade 3 or 4 toxicities / adverse events” value in series [1] (all cohorts) was “No Grade 3 or 4 toxicities”. For the same compound, the “causality assessment of the serious adverse events” value in series [1] (by principal investigators and study sponsor) is “Not Related”. In addition, the “serious adverse events reported” value in series [1] (one in cohort 2 (50 mg BID), one in cohort 3 (100 mg BID)) is listed as “Two serious adverse events were reported”. Moreover, the “% Normalized phagocytosis Replicate 1” value is recorded as −1.92% in the series on HL-60 cells (setting [3]); 19.54% with HL-60 cells (1 μM, DMSO treated HL-60 cells); −10.34% with HL-60 cells (3 μM, DMSO treated HL-60 cells); 62.35% in the series on HL-60 cells (setting [4]). The “% Normalized phagocytosis Replicate 2” value with HL-60 cells (setting [3]) is recorded as −10.34%; in the series with HL-60 cells (1 μM, DMSO treated HL-60 cells), 4.98%; with HL-60 cells (3 μM, DMSO treated HL-60 cells), −14.94%; with HL-60 cells (setting [4]) it was 47.13%. The “increase in phagocytosis of HL-60 cells” value with HL-60 cells (10 μM alone) is listed as 54.79%.
Consider `Nc1ncn([C@@H]2O[C@H](CO)[C@@H](O)[C@H]2O)c(=O)n1` [Azacitidine, 4-Amino-1-β-D-ribofuranosyl-s-triazin-2(1H)-one], for which the “increase in phagocytosis of HL-60 cells” value in the series on HL-60 cells (3 μM azacitidine treatment of HL-60 cells alone) turned out to be 71.26%. For the same compound, in the series on HL-60 cells (setting [5]), the “% Normalized phagocytosis Replicate 1” value came to 76.25% and the “% Normalized phagocytosis Replicate 2” value is 66.28%.
Regarding `N=C(N)NCCC[C@H](NC(=O)N1CCC[C@@H]1C(=O)O)c1nc([C@@H](N)CCC(=O)O)no1` [Compound of formula (I)], in series [1] (all cohorts, NCI CTCAE v 5.0), the “severity of reported non-serious adverse events” value is on record as “mild to moderate”. For the same compound, in series [1] (all cohorts), the “Grade 3 or 4 toxicities / adverse events” value is “no grade 3 or grade 4 adverse events”. In addition, the “Grade 3 or 4 toxicities / adverse events” value in series [1] (all cohorts, listed as compound of formula (I)) is “no grade 3 or grade 4 adverse events”. For the same compound, in series [1] (setting [6]), the “DLT (Dose Limiting Toxicity)” value is “without any DLT” and the hemolytic anemia entry was “No hemolytic anemia was reported in any subject; also recorded: no hemolytic anemia in any of the tested subjects”. Besides, the tolerability of treatment entry in series [1] (all subjects, across dose levels 25-400 mg BID oral, up to 4 cycles of 28 days) is recorded as “well tolerated”. Moreover, the hemolytic anemia entry in series [1] (all subjects, across dose levels 25-400 mg BID oral, listed as compound of formula (I)) is listed as “no hemolytic anemia in any of the tested subjects”. The “safe and tolerable total daily dose” value in series [1] (oral, total daily dose) was not above 800 mg. For the same compound, in series [1] (per oral BID), the “safe and tolerable dose” value is not above 400 mg. Moreover, in series [1] (reporting period), the “Serious Adverse Reactions (SAR's) or Suspected Unexpected Serious Adverse Reactions (SUSAR's)” value is on record as “No Serious Adverse Reactions (SAR's) or Suspected Unexpected Serious Adverse Reactions (SUSAR's) were reported” and the “dose reductions due to treatment-related AEs” value is on record as “no dose reductions”. In addition, in series [2], the “IL12p40, TNFα, MCP-1, MIP-1α, MIP-1β and MCP-3 levels” value is on record as “a trend towards upregulation”; the “IL-6 and IL-1α levels” value is given as “a trend towards downregulation”.
